According to PMC6287539 (International Journal for Parasitology: Drugs and Drug …, 2018):

Legend:
[1] = molecular target: T1, Hco-ACC-2 (homomeric channel) (Haemonchus contortus, UniProt A0A219KWM7); assay: two-electrode voltage clamp in Xenopus oocytes, dose-response; format: cell-based
T1 sequence (A0A219KWM7 18-443): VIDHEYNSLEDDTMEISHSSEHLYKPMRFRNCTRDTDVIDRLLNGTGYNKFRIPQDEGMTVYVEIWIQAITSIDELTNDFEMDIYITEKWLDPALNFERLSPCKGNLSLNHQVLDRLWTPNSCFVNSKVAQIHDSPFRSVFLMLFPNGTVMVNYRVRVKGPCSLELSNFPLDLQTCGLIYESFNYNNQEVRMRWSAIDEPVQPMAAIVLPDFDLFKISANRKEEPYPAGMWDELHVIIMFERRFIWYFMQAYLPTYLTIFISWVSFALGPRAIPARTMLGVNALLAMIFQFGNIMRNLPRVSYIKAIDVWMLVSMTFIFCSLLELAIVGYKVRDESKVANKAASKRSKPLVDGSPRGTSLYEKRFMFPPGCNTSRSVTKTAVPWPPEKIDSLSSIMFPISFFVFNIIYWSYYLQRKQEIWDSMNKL

[2] = molecular target: T2, Hco-ACC-1 (in the Hco-ACC-1/2 heteromeric channel) (Haemonchus contortus, UniProt A0A219KVV5+A0A219KWM7); assay: as above; format: cell-based
T2 sequence (A0A219KVV5 23-459): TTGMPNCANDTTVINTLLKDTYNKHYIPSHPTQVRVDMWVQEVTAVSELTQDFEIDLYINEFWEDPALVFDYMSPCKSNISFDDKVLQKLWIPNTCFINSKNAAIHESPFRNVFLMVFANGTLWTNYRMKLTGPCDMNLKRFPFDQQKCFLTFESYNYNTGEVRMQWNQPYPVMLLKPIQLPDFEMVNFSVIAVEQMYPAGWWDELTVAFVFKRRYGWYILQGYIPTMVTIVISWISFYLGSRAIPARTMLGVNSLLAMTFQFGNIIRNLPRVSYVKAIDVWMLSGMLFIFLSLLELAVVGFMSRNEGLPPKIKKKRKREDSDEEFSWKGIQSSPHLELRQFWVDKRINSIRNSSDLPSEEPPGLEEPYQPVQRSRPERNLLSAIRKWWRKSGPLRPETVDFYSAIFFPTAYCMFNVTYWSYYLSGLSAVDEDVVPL
T2 sequence (A0A219KWM7 18-443): T1 sequence (A0A219KWM7 18-443)

EC50 [1]: 46 ± 2 µM
EC50 [2]: 32.5 ± 3 µM
Compound: C[N+](C)(C)CCOC(N)=O [carbachol]
